{"source": "patent US8260406B2", "about": "“System and method for analyzing complex curvature of ECG curves” (Aalborg Universitet, priority 2006, dated 2012)", "origin": "cited, not measured here", "test_system": "cardiac repolarization (T-wave) in healthy subjects", "details": "30 min after sotalol administration; increase; p<0.05; occurring prior to QT prolongation; PCA of ECG Holter recordings"}
{"smiles": "CC(C)NCC(O)c1ccc(NS(C)(=O)=O)cc1", "note": "(stereo not shown) [sotalol]", "values": [{"measurement": "turbulence of repolarization velocity increased by", "value": 9.02, "unit": "%"}]}
